Like-named read-outs stand apart in the source and are kept apart here.
Key:
[1] = test system: mice; settings: cited from earlier work; for LD50, acute toxicity to mice: ip administration
[2] = test system: CCD-112CoN human normal colon cell line; settings: cited from earlier work
[3] = biological target: p65 subunit of NF-κB (Homo sapiens, UniProt Q04206); experiment: cell-based; format: cell-based
[4] = in vitro; settings: human
[5] = biological target: K-Ras (Homo sapiens, UniProt P01116); experiment: K-Ras inhibition assay in HT-29 cells; format: cell-based; settings: for IC50: read-out: K-Ras inhibition IC50
[6] = test system: quinone reductase; experiment: Quinone reductase induction assay in Hepa 1c1c7 cells; format: cell-based, mouse; settings: for CD, concentration required to double quinone reductase activity: 48 h
[7] = test system: Hepa 1c1c7 cells; experiment: Cytotoxicity against Hepa 1c1c7 cells; format: cell-based, mouse; settings: read-out: IC50, concentration that inhibits 50% cell growth
[8] = test system: quinone reductase; settings: in vitro; cited from earlier work
[9] = read-out: NF-κB p65 inhibition IC50, in HeLa cells

Chain of p65 subunit of NF-κB (Q04206 whole entry): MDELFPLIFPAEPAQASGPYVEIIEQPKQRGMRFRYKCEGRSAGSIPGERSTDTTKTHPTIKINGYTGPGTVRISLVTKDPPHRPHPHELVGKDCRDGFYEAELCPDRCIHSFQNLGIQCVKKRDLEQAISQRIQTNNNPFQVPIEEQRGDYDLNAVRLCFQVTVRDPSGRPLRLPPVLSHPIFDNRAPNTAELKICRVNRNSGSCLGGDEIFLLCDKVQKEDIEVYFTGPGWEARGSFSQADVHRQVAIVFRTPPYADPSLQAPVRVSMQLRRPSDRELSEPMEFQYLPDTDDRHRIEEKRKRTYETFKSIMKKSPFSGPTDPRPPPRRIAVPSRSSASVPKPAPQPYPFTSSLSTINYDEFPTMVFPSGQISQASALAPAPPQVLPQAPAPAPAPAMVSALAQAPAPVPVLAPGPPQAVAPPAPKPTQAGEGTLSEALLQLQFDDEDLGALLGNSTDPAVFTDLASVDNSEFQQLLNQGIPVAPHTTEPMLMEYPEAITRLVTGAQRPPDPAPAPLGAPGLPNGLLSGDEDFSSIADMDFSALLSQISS

For C=C(C)[C@H]1Cc2c(ccc3c2O[C@@H]2COc4cc(OC)c(OC)cc4[C@@H]2C3=O)O1 [Compound 7, (−)-rotenone], the “LD50, acute toxicity to mice” value [1] is listed as 2.5 mg/kg, the “Cytotoxicity against the CCD-112CoN human normal colon cell line (in words)” value [2] is listed as “lack of cytotoxicity” and the IC50 [3] is listed as over 10 µM. The IC50 at 3 days [4] was 0.3 µM.
With COc1cc2c(c3c1OC(C)(C)C=C3)O[C@H]1COc3cc4c(cc3[C@@]1(O)C2=O)OCO4 [Compound 1, (5aS ,12bS)-5a,12b-dihydro-12b-hydroxy-15-methoxy-2,2-dimethyl-2H-[1, 3]dioxolo[4,5-g]pyrano[2,3-c:6,5-f ‘]bis[1]benzopyran-13(6H)-one] the IC50 [5] was 9.4 µM, the “CD, concentration required to double quinone reductase activity” value (shortened to “CD … to double quinone reductase activity”) [6] was 19.8 µM and the IC50 ([7]; Hepa 1c1c7 cell line, 48 h) was over 40 µM. It also gave an IC50 [3, 9] of over 10 µM.
With COC1=CC2=C(O[C@H]3COc4cc5c(cc4[C@@]3(O)C2=O)OCO5)C(CC=C(C)C)(CC=C(C)C)C1=O (relative stereo) [Compound 3, (6aS,12aS)-rel-6a,12a-dihydro-12a-hydroxy-10-methoxy-8,8-bis(3-methyl-2-buten-1-yl)-[1]benzopyrano[2,3-c]-1,3-dioxolo[4,5-g][1] benzopyran-9,12(6H, 8H)-dione] the “CI, chemopreventive index (IC50/CD)” value [6] was over 16.8, the “CD … to double quinone reductase activity” value [6] was 2.4 µM and the IC50 ([7]; Hepa 1c1c7 cell line, 48 h) was over 40 µM.
For caeruleanone C, the “Quinone reductase (QR) induction (in words)” value [8] is given as “potently induce”.
In the case of (−)-3-hydroxyrotenone [Compound 6], the Lethality to mice ([1]; dose of 5 mg/kg (ip)) is given as “lethal”, the “Cytotoxicity against the CCD-112CoN human normal colon cell line (in words)” value [2] is given as “lack of cytotoxicity” and the IC50 [5] is given as 3.1 µM. It also gave an IC50 [3, 9] of 5.3 µM.
In the case of COc1cc2c(cc1OC)[C@@H]1C(=O)c3ccc4c(c3O[C@@H]1CO2)C=CC(C)(C)O4 [deguelin, reference compound], the “LD50, acute toxicity to mice” value [1] is given as 5.0 mg/kg.
In the case of COc1cc2c(cc1-c1coc3c4c(c(OC)cc3c1=O)OC(C)(C)C=C4)OCO2 [Compound 8, ichthynone], the “CI, chemopreventive index (IC50/CD)” value [6] is reported as 19.4, the “CD … to double quinone reductase activity” value [6] is reported as 1.8 µM and the IC50 ([7]; Mus musculus, Hepa-1c1c7, 48 h) is reported as 35 µM. It also gave an IC50 [3] of over 10 µM and an IC50 [4] of over 10 µM.
In the case of COc1cc2c(cc1OC)C1(O)C(=O)c3c(O)cc4c(c3OC1CO2)C=CC(C)(C)O4 (single isomer, unassigned; (+)) [Compound 11, (+)-3-hydroxy-α-toxicarol], the “K-Ras inhibitory activity (in words)” value [5] is reported as “inactive”, the “CD … to double quinone reductase activity” value [6] is reported as 6.6 µM and the IC50 ([7]; Hepa 1c1c7 cell line, 48 h) is reported as over 40 µM.
For COc1cc2c(c3c1OC(C)(C)C=C3)O[C@H]1COc3cc4c(cc3[C@H]1C2=O)OCO4 [Compound 2, (5aR, 12bR)-5a,12b-dihydro-15-methoxy-2,2-dimethyl-2H-[1, 3]dioxolo[4,5-g]pyrano[2,3-c:6,5-f'] bis[1]benzopyran-13(6H)-one], the “CI, chemopreventive index (IC50/CD)” value [6] was 8.1, the “CD … to double quinone reductase activity” value [6] was 2.2 µM and the IC50 ([7]; Hepa 1c1c7 cell line, 48 h) was 17.8 µM.
In the case of C[S@@+]([O-])CCCCN=C=S [L-sulforaphane, reference compound], the “CI, chemopreventive index (IC50/CD)” value [6] is reported as 40.8, the “CD … to double quinone reductase activity” value [6] is reported as 0.51 µM and the IC50 ([7]; Mus musculus, Hepa-1c1c7, 48 h) is reported as 20.9 µM.

Source: article PMC4956498 (Planta medica, 2016)
